# Results as given in publication PMC8635029 (Frontiers in Pharmacology, 2021).
# Tests used:
# Dopamine D1 = molecular target: T1, Dopamine D1 (Homo sapiens, UniProt P21728); assay: In vitro SafetyScreen panel; type: binding
# T1 construct: Eurofins Discovery (contract panel) Item PP223
# Protocol: (§1) In vitro off-target pharmacological activities of HSK21542 were evaluated on 86 targets using a SafetyScreen panel (Item PP223, target selectivity panel) and the corresponding methods could be found at https://www.eurofinsdiscoveryservices.com/.
# [1] = molecular target: T2, Serotonin (5-Hydroxytryptamine) 5-HT1B (Homo sapiens, UniProt P28222); assay: In vitro SafetyScreen panel; type: binding
# T2 construct: Eurofins Discovery (outsourced panel) PP223
# T2 sequence (P28222 whole entry): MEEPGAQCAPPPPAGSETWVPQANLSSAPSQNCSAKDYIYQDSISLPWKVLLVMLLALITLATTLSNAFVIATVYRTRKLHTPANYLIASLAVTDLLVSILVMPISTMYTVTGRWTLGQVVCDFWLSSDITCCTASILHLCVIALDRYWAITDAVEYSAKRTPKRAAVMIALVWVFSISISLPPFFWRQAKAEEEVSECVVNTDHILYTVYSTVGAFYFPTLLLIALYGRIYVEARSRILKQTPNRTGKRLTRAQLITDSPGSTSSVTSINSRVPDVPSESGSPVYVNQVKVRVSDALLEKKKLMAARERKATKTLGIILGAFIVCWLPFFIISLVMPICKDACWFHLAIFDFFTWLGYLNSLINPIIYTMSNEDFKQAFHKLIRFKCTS
# Protocol: as §1
# Adenosine A2A = molecular target: T3, Adenosine A2A (Homo sapiens, UniProt P29274); assay: In vitro SafetyScreen panel; type: binding
# T3 construct: Eurofins Discovery (contract panel) PP223
# Protocol: as §1
# Calcium Channel N-Type = molecular target: T4, Calcium Channel N-Type (Rattus norvegicus, UniProt Q02294); assay: In vitro SafetyScreen panel; type: binding
# T4 construct: Eurofins Discovery (contract panel) PP223
# Protocol: as §1
# Adrenergic α2A = molecular target: T5, Adrenergic α2A (Homo sapiens, UniProt P08913); assay: In vitro SafetyScreen panel; type: binding
# T5 construct: Eurofins Discovery (contract panel) PP223
# Protocol: as §1
# Estrogen ERα = molecular target: T6, Estrogen ERα (Homo sapiens, UniProt P03372); assay: In vitro SafetyScreen panel; type: binding
# T6 construct: Eurofins Discovery (contract panel) Item PP223
# Protocol: as §1
# Cannabinoid CB1 = molecular target: T7, Cannabinoid CB1 (Homo sapiens, UniProt P21554); assay: In vitro SafetyScreen panel; type: binding
# T7 construct: Eurofins Discovery (contract panel) PP223
# T7 sequence (P21554 whole entry): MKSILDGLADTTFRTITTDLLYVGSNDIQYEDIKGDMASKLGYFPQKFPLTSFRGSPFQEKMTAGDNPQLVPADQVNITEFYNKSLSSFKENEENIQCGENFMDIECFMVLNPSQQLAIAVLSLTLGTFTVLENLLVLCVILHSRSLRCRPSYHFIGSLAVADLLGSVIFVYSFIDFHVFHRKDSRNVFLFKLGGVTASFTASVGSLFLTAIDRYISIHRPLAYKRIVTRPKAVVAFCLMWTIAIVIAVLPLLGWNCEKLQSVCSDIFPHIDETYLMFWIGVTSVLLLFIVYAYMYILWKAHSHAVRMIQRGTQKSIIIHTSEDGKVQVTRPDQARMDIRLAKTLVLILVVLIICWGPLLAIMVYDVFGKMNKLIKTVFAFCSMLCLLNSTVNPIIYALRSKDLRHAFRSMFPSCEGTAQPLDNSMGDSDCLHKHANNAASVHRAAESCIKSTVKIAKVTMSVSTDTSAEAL
# Protocol: as §1
# [2] = molecular target: T8, Transporter, Norepinephrine (NET) (Homo sapiens, UniProt P23975); assay: In vitro SafetyScreen panel; type: binding
# T8 construct: Eurofins Discovery (contract panel) PP223
# Protocol: as §1
# [3] = molecular target: T9, Serotonin (5-Hydroxytryptamine) 5-HT3 (Homo sapiens, UniProt P46098); assay: In vitro SafetyScreen panel; type: binding
# T9 construct: Eurofins Discovery (contract panel) PP223
# Protocol: as §1
# [4] = molecular target: T10, Platelet Activating Factor (PAF) (Homo sapiens, UniProt P25105); assay: In vitro SafetyScreen panel; type: binding
# T10 construct: Eurofins Discovery (outsourced panel) PP223
# T10 sequence (P25105 whole entry): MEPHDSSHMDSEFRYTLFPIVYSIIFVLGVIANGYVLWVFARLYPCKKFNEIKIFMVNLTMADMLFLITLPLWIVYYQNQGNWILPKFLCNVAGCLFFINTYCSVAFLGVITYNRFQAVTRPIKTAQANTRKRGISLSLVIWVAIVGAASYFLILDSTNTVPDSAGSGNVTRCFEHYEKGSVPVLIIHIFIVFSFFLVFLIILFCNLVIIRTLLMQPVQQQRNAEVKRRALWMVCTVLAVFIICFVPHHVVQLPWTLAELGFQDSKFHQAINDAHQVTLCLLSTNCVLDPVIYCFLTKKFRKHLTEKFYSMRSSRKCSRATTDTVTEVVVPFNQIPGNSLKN
# Protocol: as §1
# Vasopressin V1A = molecular target: T11, Vasopressin V1A (Homo sapiens, UniProt P37288); assay: In vitro SafetyScreen panel; type: binding
# T11 construct: Eurofins Discovery (contract panel) PP223
# T11 sequence (P37288 whole entry): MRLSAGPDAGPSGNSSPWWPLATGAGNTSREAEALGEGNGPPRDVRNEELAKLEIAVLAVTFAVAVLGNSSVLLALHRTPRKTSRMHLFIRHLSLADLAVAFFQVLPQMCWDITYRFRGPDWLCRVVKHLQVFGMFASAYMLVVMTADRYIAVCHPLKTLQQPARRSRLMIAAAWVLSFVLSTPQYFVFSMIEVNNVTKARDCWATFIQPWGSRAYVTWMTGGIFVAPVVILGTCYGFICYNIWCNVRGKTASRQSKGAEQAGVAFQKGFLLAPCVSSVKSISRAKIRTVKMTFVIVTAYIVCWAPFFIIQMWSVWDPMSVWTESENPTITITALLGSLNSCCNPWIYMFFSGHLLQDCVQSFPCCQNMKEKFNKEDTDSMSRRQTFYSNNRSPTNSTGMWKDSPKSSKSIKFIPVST
# Protocol: as §1
# GABAB1A = molecular target: T12, GABAB1A (Homo sapiens, UniProt Q9UBS5); assay: In vitro SafetyScreen panel; type: binding
# T12 construct: Eurofins Discovery (contract panel) Item PP223
# Protocol: as §1
# [5] = molecular target: T13, Leukotriene, Cysteinyl CysLT1 (Homo sapiens, UniProt Q9Y271); assay: In vitro SafetyScreen panel; type: binding
# T13 construct: Eurofins Discovery (contract panel) Item PP223
# T13 sequence (Q9Y271 whole entry): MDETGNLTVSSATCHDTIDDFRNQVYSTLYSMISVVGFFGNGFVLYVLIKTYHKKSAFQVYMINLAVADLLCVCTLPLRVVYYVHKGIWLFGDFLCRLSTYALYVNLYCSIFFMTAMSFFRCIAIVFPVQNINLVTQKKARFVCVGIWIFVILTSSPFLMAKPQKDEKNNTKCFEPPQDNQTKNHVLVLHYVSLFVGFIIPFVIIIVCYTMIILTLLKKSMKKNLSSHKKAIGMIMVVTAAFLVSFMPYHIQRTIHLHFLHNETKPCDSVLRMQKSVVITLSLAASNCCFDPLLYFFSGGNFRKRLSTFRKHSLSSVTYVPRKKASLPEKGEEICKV
# Protocol: as §1
# Muscarinic M1 = molecular target: T14, Muscarinic M1 (Homo sapiens, UniProt P11229); assay: In vitro SafetyScreen panel; type: binding
# T14 construct: Eurofins Discovery (outsourced panel) PP223
# Protocol: as §1
# Adrenergic β2 = molecular target: T15, Adrenergic β2 (Homo sapiens, UniProt P07550); assay: In vitro SafetyScreen panel; type: binding
# T15 construct: Eurofins Discovery (contract panel) PP223
# T15 sequence (P07550 whole entry): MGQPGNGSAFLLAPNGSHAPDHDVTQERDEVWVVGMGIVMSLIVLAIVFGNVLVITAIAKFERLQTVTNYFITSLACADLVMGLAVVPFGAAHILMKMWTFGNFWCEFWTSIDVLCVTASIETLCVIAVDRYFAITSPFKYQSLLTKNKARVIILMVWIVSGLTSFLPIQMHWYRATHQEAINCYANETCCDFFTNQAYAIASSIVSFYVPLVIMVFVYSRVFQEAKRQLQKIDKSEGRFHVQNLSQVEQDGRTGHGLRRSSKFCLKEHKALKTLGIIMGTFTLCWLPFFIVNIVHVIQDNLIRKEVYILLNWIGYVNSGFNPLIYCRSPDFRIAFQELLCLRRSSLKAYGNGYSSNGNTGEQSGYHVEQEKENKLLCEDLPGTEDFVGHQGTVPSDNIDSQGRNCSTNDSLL
# Protocol: as §1
# Cannabinoid CB2 = molecular target: T16, Cannabinoid CB2 (Homo sapiens, UniProt P34972); assay: In vitro SafetyScreen panel; type: binding
# T16 construct: Eurofins Discovery (contract panel) PP223
# T16 sequence (P34972 whole entry): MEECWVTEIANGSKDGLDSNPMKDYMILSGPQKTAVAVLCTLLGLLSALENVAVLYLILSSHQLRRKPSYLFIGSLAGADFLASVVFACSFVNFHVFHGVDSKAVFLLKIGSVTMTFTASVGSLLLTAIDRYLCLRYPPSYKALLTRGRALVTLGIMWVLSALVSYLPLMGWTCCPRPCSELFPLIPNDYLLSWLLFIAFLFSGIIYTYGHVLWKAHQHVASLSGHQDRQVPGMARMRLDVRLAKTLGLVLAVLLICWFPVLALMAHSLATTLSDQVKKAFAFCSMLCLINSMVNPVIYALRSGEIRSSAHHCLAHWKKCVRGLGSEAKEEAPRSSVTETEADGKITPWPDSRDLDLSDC
# Protocol: as §1
# [6] = molecular target: T17, Glutamate, Metabotropic, mGlu5 (Homo sapiens, UniProt P41594); assay: In vitro SafetyScreen panel; type: binding
# T17 construct: Eurofins Discovery (contract panel) Item PP223
# Protocol: as §1
# Adrenergic α1A = molecular target: T18, Adrenergic α1A (Rattus norvegicus, UniProt P43140); assay: In vitro SafetyScreen panel; type: binding
# T18 construct: Eurofins Discovery (contract panel) PP223
# Protocol: as §1
# Chemokine CCR1 = molecular target: T19, Chemokine CCR1 (Homo sapiens, UniProt P32246); assay: In vitro SafetyScreen panel; type: binding
# T19 construct: Eurofins Discovery (contract panel) PP223
# Protocol: as §1
# Neuropeptide YY1 = molecular target: T20, Neuropeptide YY1 (Homo sapiens, UniProt P25929); assay: In vitro SafetyScreen panel; type: binding
# T20 construct: Eurofins Discovery (outsourced panel) PP223
# Protocol: as §1
# Opiate δ1 (OP1, DOP) = molecular target: T21, Opiate δ1 (OP1, DOP) (Homo sapiens, UniProt P41143); assay: In vitro SafetyScreen panel; type: binding
# T21 construct: Eurofins Discovery (outsourced panel) PP223
# T21 sequence (P41143 whole entry): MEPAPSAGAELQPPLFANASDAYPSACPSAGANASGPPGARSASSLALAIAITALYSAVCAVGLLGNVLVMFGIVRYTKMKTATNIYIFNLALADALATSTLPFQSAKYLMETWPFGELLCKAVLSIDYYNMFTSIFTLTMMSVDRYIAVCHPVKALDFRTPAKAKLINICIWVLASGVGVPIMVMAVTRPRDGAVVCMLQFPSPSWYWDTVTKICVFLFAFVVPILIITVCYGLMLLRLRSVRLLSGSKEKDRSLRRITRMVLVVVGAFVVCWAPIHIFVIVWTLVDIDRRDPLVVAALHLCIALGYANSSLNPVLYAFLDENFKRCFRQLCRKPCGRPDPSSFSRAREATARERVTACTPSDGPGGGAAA
# Protocol: as §1
# [7] = molecular target: T22, Transporter, Dopamine (DAT) (Homo sapiens, UniProt Q01959); assay: In vitro SafetyScreen panel; type: binding
# T22 construct: Eurofins Discovery (contract panel) PP223
# Protocol: as §1
# Adrenergic β1 = molecular target: T23, Adrenergic β1 (Homo sapiens, UniProt P08588); assay: In vitro SafetyScreen panel; type: binding
# T23 construct: Eurofins Discovery (contract panel) PP223
# Protocol: as §1
# PPARγ = molecular target: T24, PPARγ (Homo sapiens, UniProt P37231); assay: In vitro SafetyScreen panel; type: binding
# T24 construct: Eurofins Discovery (outsourced panel) PP223
# T24 sequence (P37231 whole entry): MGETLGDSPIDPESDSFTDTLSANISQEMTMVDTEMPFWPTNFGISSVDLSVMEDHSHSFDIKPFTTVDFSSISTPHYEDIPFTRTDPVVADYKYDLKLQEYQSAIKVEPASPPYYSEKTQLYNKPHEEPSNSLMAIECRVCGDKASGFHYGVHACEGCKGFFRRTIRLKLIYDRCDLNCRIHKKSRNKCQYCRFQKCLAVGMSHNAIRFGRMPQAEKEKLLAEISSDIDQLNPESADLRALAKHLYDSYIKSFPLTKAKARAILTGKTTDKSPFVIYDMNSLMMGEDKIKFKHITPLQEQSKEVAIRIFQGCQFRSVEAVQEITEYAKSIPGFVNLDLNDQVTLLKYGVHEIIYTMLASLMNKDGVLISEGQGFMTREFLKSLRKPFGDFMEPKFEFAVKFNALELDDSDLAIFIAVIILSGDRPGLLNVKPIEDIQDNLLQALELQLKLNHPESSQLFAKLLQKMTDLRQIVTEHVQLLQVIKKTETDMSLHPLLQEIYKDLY
# Protocol: as §1
# Opiate μ (OP3, MOP) = molecular target: T25, Opiate μ (OP3, MOP) (Homo sapiens, UniProt P35372); assay: In vitro SafetyScreen panel; type: binding
# T25 construct: Eurofins Discovery (outsourced panel) PP223
# Protocol: as §1
# Histamine H1 = molecular target: T26, Histamine H1 (Homo sapiens, UniProt P35367); assay: In vitro SafetyScreen panel; type: binding
# T26 construct: Eurofins Discovery (contract panel) Item PP223
# Protocol: as §1
# [8] = molecular target: T27, Cholecystokinin CCK2 (CCKB) (Homo sapiens, UniProt P32239); assay: In vitro SafetyScreen panel; type: binding
# T27 construct: Eurofins Discovery (contract panel) PP223
# T27 sequence (P32239 whole entry): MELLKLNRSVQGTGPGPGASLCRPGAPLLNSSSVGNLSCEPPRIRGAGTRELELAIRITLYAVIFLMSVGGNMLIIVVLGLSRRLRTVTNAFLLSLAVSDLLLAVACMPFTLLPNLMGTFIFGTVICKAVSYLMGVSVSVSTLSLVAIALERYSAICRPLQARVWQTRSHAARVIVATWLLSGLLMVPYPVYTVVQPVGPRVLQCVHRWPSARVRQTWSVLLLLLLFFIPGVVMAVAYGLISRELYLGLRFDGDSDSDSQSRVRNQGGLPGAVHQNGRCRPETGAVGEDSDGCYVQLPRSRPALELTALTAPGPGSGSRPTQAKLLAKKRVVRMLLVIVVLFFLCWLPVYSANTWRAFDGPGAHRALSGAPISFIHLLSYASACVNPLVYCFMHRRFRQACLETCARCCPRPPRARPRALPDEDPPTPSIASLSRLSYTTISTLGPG
# Protocol: as §1
# Muscarinic M3 = molecular target: T28, Muscarinic M3 (Homo sapiens, UniProt P20309); assay: In vitro SafetyScreen panel; type: binding
# T28 construct: Eurofins Discovery (outsourced panel) PP223
# T28 sequence (P20309 whole entry): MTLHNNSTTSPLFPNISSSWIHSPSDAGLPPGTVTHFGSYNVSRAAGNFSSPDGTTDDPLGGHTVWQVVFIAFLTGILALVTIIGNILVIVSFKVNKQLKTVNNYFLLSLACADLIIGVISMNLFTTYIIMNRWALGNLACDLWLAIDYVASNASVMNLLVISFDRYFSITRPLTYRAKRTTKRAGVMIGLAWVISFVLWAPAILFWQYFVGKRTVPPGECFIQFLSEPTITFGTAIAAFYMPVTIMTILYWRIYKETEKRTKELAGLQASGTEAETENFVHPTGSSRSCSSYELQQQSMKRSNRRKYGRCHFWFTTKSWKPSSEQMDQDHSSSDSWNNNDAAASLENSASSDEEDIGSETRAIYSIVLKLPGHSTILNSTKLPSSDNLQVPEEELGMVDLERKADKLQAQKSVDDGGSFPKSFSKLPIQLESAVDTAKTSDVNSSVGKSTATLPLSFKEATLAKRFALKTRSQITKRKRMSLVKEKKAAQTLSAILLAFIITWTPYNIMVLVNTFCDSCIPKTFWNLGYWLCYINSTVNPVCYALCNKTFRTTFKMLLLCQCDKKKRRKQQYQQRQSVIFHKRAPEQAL
# Protocol: as §1
# mice = assay: Locomotor activity test (sedation); details: 0.4 mg/kg, 15 min post-dosing
smiles,measurement,setting,value
"CC(=O)N1CC2(CCN(C(=O)[C@@H](CCCCN)NC(=O)[C@@H](CC(C)C)NC(=O)[C@@H](Cc3ccccc3)NC(=O)[C@H](N)Cc3ccccc3)CC2)C1 [HSK21542, 7-(D-phenylalanyl-D-phenylalanyl-D-leucyl-D-lysyl)-2-acetyl-2,7-diazaspiro (3.5)nonane]",inhibition at 10 µM,Dopamine D1,3%
same,inhibition at 10 µM,[1],1%
same,inhibition at 10 µM,Adenosine A2A,3%
same,inhibition at 10 µM,Calcium Channel N-Type,-3%
same,inhibition at 10 µM,Adrenergic α2A,7%
same,inhibition at 10 µM,Estrogen ERα,0%
same,inhibition at 10 µM,Cannabinoid CB1,47%
same,inhibition at 10 µM,[2],19%
same,inhibition at 10 µM,[3],14%
same,inhibition at 10 µM,[4],10%
same,inhibition at 10 µM,Vasopressin V1A,-24%
same,inhibition at 10 µM,GABAB1A,-8%
same,inhibition at 10 µM,[5],8%
same,inhibition at 10 µM,Muscarinic M1,9%
same,inhibition at 10 µM,Adrenergic β2,3%
same,inhibition at 10 µM,Cannabinoid CB2,-30%
same,inhibition at 10 µM,[6],19%
same,inhibition at 10 µM,Adrenergic α1A,12%
same,inhibition at 10 µM,Chemokine CCR1,-4%
same,inhibition at 10 µM,Neuropeptide YY1,-8%
same,inhibition at 10 µM,"Opiate δ1 (OP1, DOP)",5%
same,inhibition at 10 µM,[7],2%
same,inhibition at 10 µM,Adrenergic β1,11%
same,inhibition at 10 µM,PPARγ,3%
same,inhibition at 10 µM,"Opiate μ (OP3, MOP)",0%
same,inhibition at 10 µM,Histamine H1,4%
same,inhibition at 10 µM,[8],-12%
same,inhibition at 10 µM,Muscarinic M3,-3%
same,effect on locomotor activity / total distance traveled,mice,did not significantly affect
